What was measured:
GST = assay: Glutathione S-transferase (GST) assay in treated cells; type: cell-based, rat; details: for enhancement of GST activity: 48 h
Experimental: FIG. 4. Effect of DBZIM and TDBZIM on GPx, CAT, SOD and GST. DBZIM affected (a) GPx activity and (c) CAT activity in a dosage-dependent manner. TDBZIM suppressed (b) GPx activity and (d) CAT activity. (e) DBZIM and (f) TDBZIM had little effect on SOD activity. (g) DBZIM induced GST activity. HSC T6 cells were treated with compounds of various concentrations for 48 h, and homogenized by sonication (60% frequency for 30 s) in PBS (pH 7.4, 1 mM of EDTA) for GPx, GST and CAT assays, or in 20 mM of HEPES buffer containing 1 mM of EGTA, 210 mM of mannitol and 70 mM of sucrose (pH 7.2) for SOD assay. Enzyme activity was normalized against total protein. DBZIM was dissolved in DMSO, and TDBZIM was dissolved in H2O. The data were presented as mean and SEM, N=6, *^aP<0.05, *^bP<0.01, *^cP<0.005, and *^dP<0.0005, when compared to the vehicle control.
The activity of phase II anti-oxidant enzyme, GST, was assayed using a kit from Cayman Chemical. Protein samples were harvested in PBS buffer containing 1 mM of EDTA, and the protein concentration was determined by BCA assay. Total GST (cytosolic and microsomal) activity was assayed by measuring the conjugation of 1-chloro-2,4-dinitobenzene (CDNB) with reduced GSH, and monitored by an increase in absorbance at 340 nm. GST activity was expressed as nmol/min/mg protein.

[1] = test system: liver fibrosis induced by bile duct ligation (BDL); assay: Liver fibrosis in mice induced by bile duct ligation (BDL); type: in vivo, mouse; details: for liver fibrosis (Sirius Red collagen): drinking water, 4 weeks, DBZIM 10 mg/L, DPIM 1 g/L
Experimental: FIG. 15 Effect of DBZIM and DPIM on liver fibrosis in mice. DBZIM was tested on mice induced by (a) liver toxin thioacetamide (TAA) or by (b) bile duct ligation (BDL). DPIM was also tested on mice induced by TAA (data not shown)) or by (c) bile duct ligation (BDL).
FIG. 16. Representative of images of Sirius red staining in liver sections from different DPIM compound treated group mice. Each treated group had 6-8 mice, except for 500 mg/l treated group, which had only one mouse in the group. Red staining areas represent collagen deposits. (A) sham operated, (B) sham operated+DPIM 1 g/l for 4 weeks, (C) BDL for 4 weeks, (D) BDL 4 weeks+500 mg/l DPIM treatment, (E) BDL 4 weeks+750 mg/l DPIM treatment, and (F) BDL 4 weeks+1 g/l DPIM treatment.
FIG. 17. Percentage of Sirius red staining areas. Sirius red staining areas from different treatment group mice were quantified with Image J software, at least 6 different areas from left and middle lobes of liver of each mouse were covered. *P<0.05, BDL vs. DPIM treated groups; # P<0.05, 750 mg/l vs. 1 g/l treated groups.
FIG. 18. Liver weights of different treatment groups. Each group consisted of 6-8 mice which were 10-12 weeks old at the start of surgery procedure. *P<0.05, sham operated control group vs: BDL 4 weeks, **P<0.05, DPIM compound treated groups vs; BDL weeks group, # P<0.05, 750 mg/l DPIM treated group vs. 1 g/l DPIM treated group.
FIG. 19. Representative images of H&E staining of liver sections. (A) control group; (B) BDL 4 weeks group; and (C) BDL 4 weeks+DPIM 1 g/l treatment group.
FIG. 20. Quantitative real-time PCR for collagen 1a1 mRNA. DPIM reduced collagen 1a1 mRNA.
For the liver toxin thioacetamide (TAA) model, TAA was given by i.p. injection at 200 mg/kg body weight, 3 times per week, for 12 weeks, to induce hepatic fibrosis in mice. For the bile duct ligation model (BDL), adult mice were anesthetized with Ketamine (150 mg/kg)/Xylazine (10 mg/kg) via i.p. injection. An abdominal incision at the midline is made to expose the common bile conduct, which was then ligated using 5-0 silk suture. In the control animal, the bile duct is exposed, but not ligated. DBZIM or DPIM was provided to the mice in drinking water at concentrations from 1 to 1000 mg/liter. The collagen content in the fibrotic liver was assessed by the Sirius Red staining of the liver tissue sections.
Male FVB/N mice (8-10 weeks old) housed in a specific pathogen-free (SFP) facility on a 12 hour dark-light cycle and with free access to water and diet were used in the study. The animal experiment protocol was approved by the institutional animal care and use committee (IACUC), the Biomedical Research Council (BMRC) of Singapore.
Cholestatic fibrosis was induced by BDL, briefly, mice were anesthetized with intraperitoneal injection of ketamine (150 mg/kg) and xylazine (10 mg/kg), after midline laparotomy, the common bile duct was ligated twice with 5-0 silk suture. The sham operation was performed similarly except that bile duct was not double ligated. The experimental mice were divided into four groups: 1) control only (sham operated, but no BDL); 2) control+DPIM; 3) BDL only; 4) BDL+DPIM. Each group consists of 6-8 mice. DPIM compound for treatment was supplied in the drinking water at three concentrations, 500 mg/l, 750 mg/l, 1 g/l, respectively. The drinking water containing DPIM was changed weekly. It was observed that on average each mouse (normal or operated) drank approximately 3-4 ml plain or DPIM-containing water every day. […] The compound treatment was started on the third day after animals recovered from the BDL procedure. After 4 weeks, livers were removed from mice for fixation 10% formalin, subsequently embedded in paraffin.
For consistency, paraffin-sections prepared from the left and median lobes were stained with Sirius-Red to visualize the collagen content. […]

Row | Molecule | enhancement of GST activity (GST; 100 μM) | enhancement of GST activity (GST; 300 μM) | liver fibrosis (Sirius Red collagen) ([1]; BDL model) | liver weight ([1]; BDL 4 weeks + 750 mg/l (BDL alone 2.74±0.51 g)) | Sirius-Red positive areas (percentage of staining areas; BDL alone 8.69) ([1]; BDL 4 weeks + 750 mg/l in drinking water) | proliferative cells around the sinusoidal area (H&E staining) ([1]; BDL 4 weeks + 1 g/l) | liver weight ([1]; BDL 4 weeks + 1 g/l (BDL alone 2.74±0.51 g)) | Sirius-Red positive areas (percentage of staining areas; BDL alone 8.69) ([1]; BDL 4 weeks + 1 g/l in drinking water) | liver collagen 1a1 mRNA ([1]; BDL model) | collagen build-up in sham mice ([1]; sham operated + 1 g/l for 4 weeks) | liver weight ([1]; sham operated + DPIM for 4 weeks (sham 1.50±0.19 g)) | effect on GST activity (references) (GST; EGCG, NAC)
1 | [Br-].c1ccc(Cn2cc[n+](Cc3ccccc3)c2)cc1 [DBZIM, 1,3-bisbenzylimidazolium bromide] | 22% | 32% | attenuated fibrosis | – | – | – | – | – | – | – | – | –
2 | CC(C)n1cc[n+](C(C)C)c1.F[B-](F)(F)F [DPIM, 1,3-diisopropylimidazolium tetrafluoroborate] | – | – | displayed its effect | 1.97 ± 0.44 g | 4.33% | reduced the number of proliferative cells | 1.65 ± 0.20 g | 3.42% | reduced the collagen 1a1 mRNA | did not induce any significant build-up of collagen | 1.56 ± 0.08 g | –
3 | (−)-Epigallocatechin gallate [EGCG, reference compound] | – | – | – | – | – | – | – | – | – | – | – | did not have much affect
